Reference: ChEMBL document CHEMBL1131221, “2'-C-Methyl analogues of selective adenosine receptor agonists: synthesis and binding studies” (J Med Chem, 1998)

Assays:
Adenosine receptor A3 = molecular target: T1, Adenosine receptor A3 (Rattus norvegicus, UniProt P28647); assay: Inhibitory activity against Adenosine A3 receptor by inhibiting specific [3H](R)-PIA binding to rat testis membranes; set-up: species or system Membrane
T1 sequence (P28647 whole entry): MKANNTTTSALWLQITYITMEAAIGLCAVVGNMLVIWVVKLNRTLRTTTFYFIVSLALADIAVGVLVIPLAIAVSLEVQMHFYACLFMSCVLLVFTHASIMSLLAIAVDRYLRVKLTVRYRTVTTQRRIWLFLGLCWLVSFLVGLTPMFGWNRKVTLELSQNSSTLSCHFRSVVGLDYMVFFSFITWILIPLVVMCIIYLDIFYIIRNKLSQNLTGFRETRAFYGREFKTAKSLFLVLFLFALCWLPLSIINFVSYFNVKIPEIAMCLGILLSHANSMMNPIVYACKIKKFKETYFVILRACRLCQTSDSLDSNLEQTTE

Rattus norvegicus [1] = species: Rattus norvegicus; assay: The compound was tested for the concentration to inhibit 50% of Adenylyl cyclase activity in rat cortical membranes.; type: functional
Rattus norvegicus [2] = species: Rattus norvegicus; assay: Maximal % inhibition of adenylyl cyclase activity in rat cortical membranes at a concentration of 10 uM.; type: functional
Adenosine receptor A1 = molecular target: T2, Adenosine receptor A1 (Bos taurus, UniProt P28190)
T2 sequence (P28190 whole entry): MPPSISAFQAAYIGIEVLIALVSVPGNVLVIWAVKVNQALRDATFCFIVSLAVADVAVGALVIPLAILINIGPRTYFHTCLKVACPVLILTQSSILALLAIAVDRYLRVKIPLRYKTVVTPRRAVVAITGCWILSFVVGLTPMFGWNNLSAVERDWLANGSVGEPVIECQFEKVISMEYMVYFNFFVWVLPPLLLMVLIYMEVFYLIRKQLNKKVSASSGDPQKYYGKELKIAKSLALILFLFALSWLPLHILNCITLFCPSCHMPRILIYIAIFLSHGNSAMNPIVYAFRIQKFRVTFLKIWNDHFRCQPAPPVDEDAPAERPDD
Description: Inhibitory activity at Adenosine A1 receptor by inhibition of [3H]CHA binding to bovine brain cortical membranes.

Adenosine receptor A2a = Adenosine receptor A2a (Homo sapiens, UniProt P29274)
Chain of Adenosine receptor A2a (P29274 whole entry): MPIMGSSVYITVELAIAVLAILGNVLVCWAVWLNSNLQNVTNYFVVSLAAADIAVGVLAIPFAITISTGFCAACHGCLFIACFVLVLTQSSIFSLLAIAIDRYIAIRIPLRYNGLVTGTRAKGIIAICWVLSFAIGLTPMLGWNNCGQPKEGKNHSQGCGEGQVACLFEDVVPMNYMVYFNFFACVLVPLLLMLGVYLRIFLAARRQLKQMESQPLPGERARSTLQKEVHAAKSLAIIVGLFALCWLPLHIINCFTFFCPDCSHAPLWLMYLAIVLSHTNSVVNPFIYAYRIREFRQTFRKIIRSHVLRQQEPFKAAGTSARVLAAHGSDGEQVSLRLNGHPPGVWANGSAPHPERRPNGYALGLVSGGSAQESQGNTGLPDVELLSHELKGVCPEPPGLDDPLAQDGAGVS
Description: Inhibitory activity at Adenosine A2A receptor by inhibition of [3H]-CGS- 21680 binding to bovine striatal membranes.

Rattus norvegicus [3] = species: Rattus norvegicus; assay: (§1) Inhibitory activity against Adenylyl cyclase in rat cortical membranes in the presence of 2''-IB-Ado at concentration 30 nM; type: functional
Rattus norvegicus [4] = species: Rattus norvegicus; assay: (§2) Inhibitory activity against Adenylyl cyclase in rat cortical membranes in the presence of 2''-Me-CPA at concentration 50 nM; type: functional
Rattus norvegicus [5] = species: Rattus norvegicus; assay: as §1; type: functional; remark: listed apart in the source
Rattus norvegicus [6] = species: Rattus norvegicus; assay: (§3) Inhibitory activity against Adenylyl cyclase in rat cortical membranes in the presence of 2''-Me-CCPA at concentration 30 nM; type: functional
Rattus norvegicus [7] = species: Rattus norvegicus; assay: as §2; type: functional; remark: listed apart in the source
Rattus norvegicus [8] = species: Rattus norvegicus; assay: as §3; type: functional; remark: listed apart in the source
[9] = molecular target: T3, Adenosine receptor A3 (Rattus norvegicus) (UniProt P28647); assay: Inhibitory activity against Adenosine A3 receptor by inhibition of [3H](R)-PIA binding to rat testis membranes; type: cell membranes; settings: Membrane, concentration not given here
T3 sequence (whole entry): T1 sequence (P28647 whole entry)

[10] = Inhibitory selectivity at Adenosine A3 receptor compared to Adenosine 1 receptor.
[11] = Inhibitory selectivity at Adenosine A3 receptor compared to Adenosine 2A receptor.
[12] = Inhibitory selectivity at Adenosine 2A receptor compared to Adenosine 1 receptor.

Structure (SMILES) | Ki (Adenosine receptor A3) | IC50 (Rattus norvegicus [1]) | Max inhibition (Rattus norvegicus [2]) | Ki (Adenosine receptor A1) | Ki (Adenosine receptor A2a) | other results
C[C@@]1(O)[C@H](O)[C@@H](CO)O[C@H]1n1cnc2c(NC3CCCC3)nc(Cl)nc21 | 5000 nM | 13.1 nM | 15.1% | 1.8 nM |  | 
OC[C@H]1O[C@@H](n2cnc3c(NCc4cccc(I)c4)ncnc32)[C@H](O)[C@@H]1O |  |  |  | 18.6 nM |  | 
C[C@H](Cc1ccccc1)Nc1ncnc2c1ncn2[C@@H]1O[C@H](CO)[C@@H](O)[C@@]1(C)O | 1080 nM | 1.6 nM | 13.7% | 4.7 nM | 7440 nM | 
OC[C@H]1O[C@@H](n2cnc3c(NC4CCCCC4)ncnc32)[C@H](O)[C@@H]1O |  | 1.4 nM | 16.2% |  |  | IC50 (Rattus norvegicus [3]): 1.5 nM; IC50 (Rattus norvegicus [4]): 1.4 nM; Max inhibition (Rattus norvegicus [5]): 16%; Max inhibition (Rattus norvegicus [6]): 16.1%; Max inhibition (Rattus norvegicus [7]): 16.2%; IC50 (Rattus norvegicus [8]): 1.6 nM
C[C@@H](Cc1ccccc1)Nc1ncnc2c1ncn2C1O[C@H](CO)[C@@H](O)[C@@]1(C)O (stereo partly drawn) | 10000 nM |  |  | 50 nM |  | 
OC[C@H]1O[C@@H](n2cnc3c(NC4CCCC4)ncnc32)[C@H](O)[C@@H]1O [N6-CYCLOPENTYLADENOSINE] |  | 11.6 nM | 15.5% |  | 385 nM | 
C[C@]1(O)C(n2cnc3c(N)nc(Cl)nc32)O[C@H](CO)[C@H]1O (stereo partly drawn) |  |  |  | 533 nM |  | inhibition [9]: 10%
C[C@@]1(O)[C@H](O)[C@@H](CO)O[C@H]1n1cnc2c(NCc3cccc(I)c3)ncnc21 |  | 1.6 nM | 10.9% | 20.1 nM |  | 
CNC(=O)[C@H]1OC(n2cnc3c(NCc4cccc(I)c4)ncnc32)[C@](C)(O)[C@@H]1O (stereo partly drawn) | 320 nM |  |  | 254 nM | 1530 nM | Selectivity [10]: 1.2; Selectivity [11]: 0.2; Selectivity [12]: 6
C[C@@]1(O)[C@H](O)[C@@H](CO)O[C@H]1n1cnc2c(NC3CCCC3)ncnc21 | 208 nM | 2.3 nM | 11% | 9.5 nM |  | 
C[C@@]1(O)[C@H](O)[C@@H](CO)O[C@H]1n1cnc2c(N)ncnc21 |  |  |  |  |  | inhibition [9]: 0%
Nc1nc(Cl)nc2c1ncn2[C@@H]1O[C@H](CO)[C@@H](O)[C@H]1O | 3200 nM |  |  | 20.2 nM | 120 nM | Selectivity [10]: 158; Selectivity [11]: 26.6; Selectivity [12]: 5.9
OC[C@H]1O[C@@H](n2cnc3c(NC4CCCC4)nc(Cl)nc32)[C@H](O)[C@@H]1O |  |  |  | 0.35 nM | 580 nM | 
CCNC(=O)[C@H]1O[C@@H](n2cnc3c(N)ncnc32)[C@](C)(O)[C@@H]1O | 550 nM |  |  | 142 nM | 218 nM | Selectivity [10]: 3.8; Selectivity [11]: 2.5; Selectivity [12]: 1.5
C[C@@]1(O)[C@@H](CO)O[C@@H](n2cnc3c(N)ncnc32)[C@@H]1O |  |  |  | 49500 nM |  | inhibition [9]: 8%
C[C@H](Cc1ccccc1)Nc1ncnc2c1ncn2[C@@H]1O[C@H](CO)[C@@H](O)[C@H]1O [(R)-PIA] | 53 nM |  |  |  |  | 
C[C@@H](Cc1ccccc1)Nc1ncnc2c1ncn2[C@@H]1O[C@H](CO)[C@@H](O)[C@H]1O [(S)-PIA] | 241 nM |  |  |  |  | 
CNC(=O)[C@H]1O[C@@H](n2cnc3c(NCc4cccc(I)c4)ncnc32)[C@H](O)[C@@H]1O [IB-MECA] |  |  |  | 33.1 nM |  | 
